# Experimental data reported in patent publication US9897613B2, “Mass spectrometric measurement of microbial resistances” (Bruker Daltonik GmbH, priority 2007, dated 2018).
# Key:
# [1] = system: non-resistant type of E. coli; assay: Mass spectrometric (MALDI) protein profile after incubation with antibiotic in liquid nutrient medium, non-resistant strain; format: cell-based, Escherichia coli; conditions: ampicillin in a liquid nutrient medium allowed to act for two hours, FIG. 2 top
# Description: (§1) The non-resistant type of E. coli (top) has been destroyed; all protein signals of the mass spectra from FIG. 1 have disappeared.
# (§2) The illustrative method starts in step 300 and comprises the following steps: • (a) In step 302, a quantity of microbes under investigation is added to a nutrient medium which also contains a quantity of the antibiotic, • (b) Next, in step 304, the microbes are incubated at a predetermined temperature for a predetermined length of time, preferably not longer than a few hours, • (c) In step 306, the microbes are then removed from the nutrient medium by a suitable means, such as centrifuging, • (d) The microbes are then applied, in step 308, together with a matrix solution to a mass spectrometric sample support and the matrix solution is dried on the sample support to form a sample, • (e) In step 310, a mass spectrum of this sample is acquired, and • (f) Then, in step 312, the acquired mass spectrum is compared with reference mass spectra of these microbes. The process then finishes in step 314.
# Infectious microbes are incubated for about two hours at temperatures of between 35° C. and 40° C. in the presence of the antibiotics. This temperature is the optimum one for most infectious microbes because they are generally adapted to a life in mammals. […]
# [2] = system: E. coli with a resistance to ampicillin due to a plasmid pUC19; assay: Mass spectrometric (MALDI) protein profile after incubation with antibiotic in liquid nutrient medium, resistant strain; format: cell-based, Escherichia coli; conditions: ampicillin in a liquid nutrient medium allowed to act for two hours, FIG. 2 bottom
# Description: The mass spectra contain predominantly protein signals of the same mass, with the usual lack of reproducibility of the intensities. They are identified as being identical by suitable computer programs.
# as §1, §2
# Infectious microbes are incubated for about two hours at temperatures of between 35° C. and 40° C. in the presence of the antibiotics. […]
structure (smiles),measurement,setting,value
CC1(C)S[C@@H]2[C@H](NC(=O)[C@H](N)c3ccccc3)C(=O)N2[C@H]1C(=O)O [ampicillin],effect on microbes / protein signals of the mass spectrum,[1],destroyed
same,effect on microbes / protein profile of the mass spectrum,[2],protein profile which is sufficiently similar to the two mass spectra in FIG. 1
